Assays:
CHIKV = assay: antiviral activity against CHIKV (VTR and EC90); assay type: cell-based; settings: Chikungunya virus; for log reduction at 10 µM: read-out: VTR @ 10 μM (logs)
Source text: As used herein, “EC90,” is intended to refer to the concentration of a substance (e.g., a compound or a drug) that is required for 90% agonism of a biological process, or component of a process, including a protein, subunit, organelle, ribonucleoprotein, etc. In one aspect, an EC90 can refer to the concentration of a substance that is required for 90% agonism in vivo, as further defined elsewhere herein. In a further aspect, […].

[1] = cell cytotoxicity in a cell viability assay (CC50); assay type: cell-based; settings: concentration required for 50% cell survival
Source text: As used herein, “CC50,” is intended to refer to the cell cytotoxicity to the concentration of a substance (e.g., a compound or a drug) that is required for 50% cell survival in a cell viability assay in vitro.

In the case of `COC1CCC(C(=O)Nc2nc(-c3cccc(Nc4ccc(C#N)cc4)c3)cs2)CC1` (stereo not drawn) [Compound 50, N-(4-(3-((4-cyanophenyl)amino)phenyl)thiazol-2-yl)-4-methoxycyclohexane-1-carboxamide], the EC90 (CHIKV) is reported as 0.1 µM, the log reduction at 10 µM (CHIKV) is reported as 4.53 and the CC50 [1] is reported as 12.4 µM.

`CSc1ncccc1C(=O)Nc1nc(-c2cccc(Nc3ccc(C#N)cn3)c2)cs1` [Compound 51, N-(4-(3-((5-cyanopyridin-2-yl)amino)phenyl)thiazol-2-yl)-2-(methylthio)nicotinamide] gave an EC90 (CHIKV) of 4.84 µM, a log reduction at 10 µM (CHIKV) of 2.16 and a CC50 [1] greater than 40 µM.

`N#Cc1ccc(Nc2cccc(-c3csc(NC(=O)C45CC(C#N)(C4)C5)n3)c2)cc1` [Compound 52, 3-cyano-N-(4-(3-((4-cyanophenyl)amino)phenyl)thiazol-2-yl)bicyclo[1.1.1]pentane-1-carboxamide] gave an EC90 (CHIKV) of 1.5 µM, a log reduction at 10 µM (CHIKV) of 5.58 and a CC50 [1] of 9 µM.

Reference: patent publication US20200399264A1, “4-SUBSTITUTED-2-THIAZOLE AMIDES AS ANTIVIRAL AGENTS” (Southern Research Institute, priority 2019, published 2020)
